In ChEMBL document CHEMBL4483862, “Open-source discovery of chemical leads for next-generation chemoprotective antimalarials” (2018) one finds IC50 and IC90 data, which are given here for 37 compounds.

In this test the test system is Plasmodium berghei. The experiment in a line: Luciferase/luciferin-expressing antifolate-resistant parasites were used to infect a culture of HepG2 cells that were pre-incubated with compounds. Infected hepatocytes emit light due to the luciferase reaction. Assay results are presented as the percent inhibition of light emission compared to control. […]. Type of test: functional. To be noted: sporozoite; for IC90: read-out: LUCIFERASE INFECTION ASSAY - IC90.

Where [1] appears, read: read-out: LUCIFERASE INFECTION ASSAY - IC50.

SMILES strings stand for the structures.

In general, IC50 refers to the concentration that inhibits the measured activity by half. By IC90 is commonly meant the concentration needed for an effect of 90%. On to `N#Cc1nc(=O)n(-c2ccc(OC(F)(F)F)cc2)c(N)c1/N=C/c1ccc(C(F)(F)F)cc1`, for which the IC90 came out at 4.82 µM. Besides, the IC50 (FFLUC_HILL_SLOPE 11.8, FFLUC_R_SQUARED 0.146, HEPG2TOX_HILL_SLOPE 2.94, HEPG2TOX_R_SQUARED 0.795, PBLUC_HILL_SLOPE 2.18, PBLUC_R_SQUARED 0.738, read-out: LUCIFERASE INFECTION ASSAY - IC50) is 1.76 µM.
With `C=C(C)C/N=c1\scc(-c2ccccc2F)n1/N=C1\CCCCc2ccccc21`, the IC90 was greater than 10 µM. Moreover, the IC50 under setting [1] is greater than 10 µM.
Consider `S=C(N/N=C/c1ccc(Cl)cc1)Nc1cc(Cl)ccc1Cl`, for which the IC90 is greater than 9.2 µM. Moreover, the 50% inhibitory concentration (IC50) under setting [1] is greater than 9.2 µM.
Regarding `O=C(c1cnc2cc3c(cc2c1)OCCCO3)c1ccccc1O`, the IC90 was determined as 5.25 µM. The IC50 (FFLUC_HILL_SLOPE 1.6, FFLUC_R_SQUARED 0.767, HEPG2TOX_HILL_SLOPE 8.36, HEPG2TOX_R_SQUARED 0.65, PBLUC_HILL_SLOPE 1.47, PBLUC_R_SQUARED 0.802, read-out: LUCIFERASE INFECTION ASSAY - IC50) worked out at 1.17 µM.
As to `COc1cccc(NC(=O)c2cc(C(C)(C)C)n(-c3ccccc3)c2C)c1`, the IC90 was greater than 9.1 µM. Also, the IC50 (PBLUC_HILL_SLOPE 0.223, PBLUC_R_SQUARED 0.111, read-out: LUCIFERASE INFECTION ASSAY - IC50) is greater than 9.1 µM.
Take `Cc1ccc2nc(CNc3ccccc3-c3ccccc3)cc(=O)n2c1`: the concentration for an effect of 90% (IC90) was greater than 10 µM. In addition, the IC50 under setting [1] is greater than 10 µM.
With `N/C(=N\OC(=O)c1ccc2ncsc2c1)c1ccccc1`, the IC90 turned out to be 9.73 µM. Moreover, where the note is “FFLUC_HILL_SLOPE 2.58, FFLUC_R_SQUARED 0.671, PBLUC_HILL_SLOPE 1.01, PBLUC_R_SQUARED 0.623, read-out: LUCIFERASE INFECTION ASSAY - IC50”, the IC50 is 1.1 µM.
For `O=C(Nc1nc2ccccn2c1C(=O)NC1CCCC1)c1ccc(C(F)(F)F)cc1`, the IC90 was found to be 0.325 µM. Under “FFLUC_HILL_SLOPE 11.1, FFLUC_R_SQUARED 0.453, HEPG2TOX_HILL_SLOPE 0.561, HEPG2TOX_R_SQUARED 0.841, PBLUC_HILL_SLOPE 12.2, PBLUC_R_SQUARED 0.531, read-out: LUCIFERASE INFECTION ASSAY - IC50”, the IC50 was 0.271 µM.
Regarding `Oc1cccc(-c2cnc3cnc(-c4cc5ccccc5s4)cn23)c1`, the IC90 came out at 8.34 µM. In addition, the IC50 (HEPG2TOX_HILL_SLOPE 18.8, HEPG2TOX_R_SQUARED 0.771, PBLUC_HILL_SLOPE 3.35, PBLUC_R_SQUARED 0.418, read-out: LUCIFERASE INFECTION ASSAY - IC50) is 4.33 µM.
Take `COc1ccc(Nc2nccn3c(-c4cccc(C(=O)NCCO)c4)cnc23)cc1`: the IC90 turned out to be 4.59 µM. Besides, under “FFLUC_HILL_SLOPE 1.47, FFLUC_R_SQUARED 0.89, PBLUC_HILL_SLOPE 0.68, PBLUC_R_SQUARED 0.895, read-out: LUCIFERASE INFECTION ASSAY - IC50”, the IC50 came out at 0.181 µM.
For `Cn1ccnc1Sc1ncnc2sccc12`, the 90% effect concentration (IC90) was 3.92 µM. Also, under “PBLUC_HILL_SLOPE 5.04, PBLUC_R_SQUARED 0.521, read-out: LUCIFERASE INFECTION ASSAY - IC50”, the IC50 amounted to 2.53 µM.
Turning to `CCCCCc1c(C(=O)OCC)[nH]c(C)c1C`, the 90% effect concentration (IC90) was greater than 13.9 µM. The IC50 (HEPG2TOX_HILL_SLOPE 1.75, HEPG2TOX_R_SQUARED 0.784, PBLUC_HILL_SLOPE 1.37, PBLUC_R_SQUARED 0.743, read-out: LUCIFERASE INFECTION ASSAY - IC50) was found to be 5.49 µM.
As for `O=C(NCc1ccc(Cn2ccnc2)cc1)c1csc(-c2cccs2)n1`, the IC90 was greater than 10 µM. Moreover, the IC50 (PBLUC_HILL_SLOPE 1.64, PBLUC_R_SQUARED 0.565, read-out: LUCIFERASE INFECTION ASSAY - IC50) worked out at 6.98 µM.
In the case of `CCOC(=O)c1csc(-c2sc(SC)c(C(C)=O)c2C)n1`, the IC90 was greater than 9.66 µM. Also, under setting [1], the IC50 was greater than 9.66 µM.
Regarding `COc1cccc(-c2cnc(N)c(-c3ccc(O)c(OC)c3)c2)c1`, the IC90 came to 7.28 µM. For the same compound, where the note is “FFLUC_HILL_SLOPE 0.591, FFLUC_R_SQUARED 0.281, PBLUC_HILL_SLOPE 3.73, PBLUC_R_SQUARED 0.478, read-out: LUCIFERASE INFECTION ASSAY - IC50”, the IC50 was 4.04 µM.
As for `CNc1snc(C)c1C(=O)Nc1ccc2oc(C(C)C)nc2c1`, the IC90 amounted to 3.56 µM. The IC50 (PBLUC_HILL_SLOPE 15, PBLUC_R_SQUARED 0.678, read-out: LUCIFERASE INFECTION ASSAY - IC50) worked out at 3.08 µM.
As to `Cc1ccc2nc(NC(=O)c3cccc(F)c3)c(C(=O)NC3CCCC3)n2c1`, the IC90 turned out to be 1.08 µM. Further, the IC50 under setting [1] was 0.886 µM.
With `Nc1ncc(-c2ccc(F)cc2F)cc1-c1cccc(C(F)(F)F)c1`, the IC90 is greater than 9.42 µM. The concentration for half-maximal inhibition (IC50) (PBLUC_HILL_SLOPE 3.4, PBLUC_R_SQUARED 0.237, read-out: LUCIFERASE INFECTION ASSAY - IC50) amounted to 7.55 µM.
With `CCOc1ccc(OCC)c(S(=O)(=O)Oc2cccc3cccnc23)c1`, the IC90 came to 7.66 µM. For the same compound, the IC50 (HEPG2TOX_HILL_SLOPE 2.73, HEPG2TOX_R_SQUARED 0.737, PBLUC_HILL_SLOPE 3.92, PBLUC_R_SQUARED 0.473, read-out: LUCIFERASE INFECTION ASSAY - IC50) was 4.37 µM.
Consider `CC(C)(C)c1nnc2sc(SCC(=O)NC(c3ccccc3)c3ccccc3)nn2c1=O`, for which the concentration for an effect of 90% (IC90) was greater than 10 µM. In addition, the IC50 (FFLUC_HILL_SLOPE 10.4, FFLUC_R_SQUARED 0.278, PBLUC_HILL_SLOPE 1.88, PBLUC_R_SQUARED 0.683, read-out: LUCIFERASE INFECTION ASSAY - IC50) was found to be 4.26 µM.
As for `C=CCn1c(C)cc(C(=O)COC(=O)C(O)(c2ccccc2)c2ccccc2)c1C`, the IC90 worked out at 5.78 µM. Moreover, the IC50 (PBLUC_HILL_SLOPE 1.92, PBLUC_R_SQUARED 0.565, read-out: LUCIFERASE INFECTION ASSAY - IC50) is 1.84 µM.
Take `N#C/C(=N\Nc1cc(C(F)(F)F)ccc1OCC(F)(F)F)S(=O)(=O)c1ccccc1`: the IC90 was found to be 0.397 µM. For the same compound, for the setting “HEPG2TOX_HILL_SLOPE 2.04, HEPG2TOX_R_SQUARED 0.948, PBLUC_HILL_SLOPE 1.99, PBLUC_R_SQUARED 0.732, read-out: LUCIFERASE INFECTION ASSAY - IC50”, the IC50 was 0.131 µM.
`Cc1ccc(CSc2nc3c(c(-c4cccs4)c2C#N)CCCC3)cc1`: the IC90 was greater than 8.76 µM. Moreover, the IC50 (FFLUC_HILL_SLOPE 8.93, FFLUC_R_SQUARED 0.64, PBLUC_HILL_SLOPE 2.69, PBLUC_R_SQUARED 0.339, read-out: LUCIFERASE INFECTION ASSAY - IC50) was found to be 6.13 µM.
`CN(c1ccccc1)S(=O)(=O)c1cccc(C(=O)Nc2ccc(-c3cn4c(n3)CCC4)cc2)c1`: the IC90 is greater than 10 µM. Further, the IC50 under setting [1] is greater than 10 µM.
As to `O=[N+]([O-])c1ccc2nc3c(c(-c4ccccc4)c2c1)CSc1ccccc1-3`, the 90% effect concentration (IC90) is greater than 10 µM. In addition, under setting [1], the IC50 was greater than 10 µM.
`COc1cc(OC)c2[nH]c(C(=O)Nc3ccc(-n4cccn4)cc3)cc2c1`: the IC90 was greater than 10 µM. Besides, under “PBLUC_HILL_SLOPE 2.78, PBLUC_R_SQUARED 0.238, read-out: LUCIFERASE INFECTION ASSAY - IC50”, the half-maximal inhibitory concentration (IC50) stood at 6.45 µM.
Take `CC(C)(C)C(=O)Nc1ccccc1Sc1ccc([N+](=O)[O-])c(Sc2ccccc2NC(=O)C(C)(C)C)n1`: the IC90 was greater than 6.13 µM. The IC50 under setting [1] is greater than 6.13 µM.
As for `C/N=c1\scc(-c2cc3ccccc3o2)n1/N=C/c1cccc(O)c1O`, the IC90 was greater than 10 µM. For the same compound, the IC50 under setting [1] is greater than 10 µM.
For the compound `Cc1ccc(C)c(N2C(=O)C=CC2=O)c1`, the IC90 is greater than 16.4 µM. For the same compound, the IC50 (PBLUC_HILL_SLOPE 15.1, PBLUC_R_SQUARED 0.421, read-out: LUCIFERASE INFECTION ASSAY - IC50) was determined as 14.8 µM.
As for `CCC(C)NC(=O)c1c(NC(=O)c2cccc(F)c2)nc2ccc(C)cn12` (centres undefined), the IC90 was determined as 2.91 µM. For the same compound, the IC50 (FFLUC_HILL_SLOPE 0.281, FFLUC_R_SQUARED 0.0242, HEPG2TOX_HILL_SLOPE 2.05, HEPG2TOX_R_SQUARED 0.911, PBLUC_HILL_SLOPE 3.14, PBLUC_R_SQUARED 0.667, read-out: LUCIFERASE INFECTION ASSAY - IC50) was found to be 1.45 µM.
On to `COc1ccc(/C=C/C2=NNC(=O)CC2)cc1`, for which the IC90 was greater than 14.3 µM. Further, the IC50 (HEPG2TOX_HILL_SLOPE 0.708, HEPG2TOX_R_SQUARED 0.9, read-out: LUCIFERASE INFECTION ASSAY - IC50) was greater than 14.3 µM.
For `NS(=O)(=O)c1ccc(CCNC(=O)c2ccc3nccnc3c2)cc1`, the IC90 is greater than 10 µM. For the same compound, the IC50 under setting [1] was greater than 10 µM.
`CCc1sc(C(=O)Nc2cnc3ccccc3c2)cc1C`: the IC90 was greater than 10 µM. In addition, where the note is “HEPG2TOX_HILL_SLOPE 1.13, HEPG2TOX_R_SQUARED 0.365, PBLUC_HILL_SLOPE 0.275, PBLUC_R_SQUARED 0.613, read-out: LUCIFERASE INFECTION ASSAY - IC50”, the IC50 was determined as 0.46 µM.
For the compound `Cc1ccc(C(C)C)cc1OS(=O)(=O)c1ccc(S(=O)(=O)N(C)C)cc1[N+](=O)[O-]`, the IC90 is greater than 10 µM. The IC50 under setting [1] was greater than 10 µM.
As for `Cn1ccc2cc(-c3cn4c(-c5ccc(C(=O)NC6CC6)cc5)cnc4cn3)ccc21`, the IC90 was 3.32 µM. Besides, the IC50 under setting [1] is 2.7 µM.
Turning to `CCn1c2ccccc2c2cc(NC(=O)COC(=O)CCNS(=O)(=O)c3cccc(C)c3)ccc21`, the 90% effect concentration (IC90) was greater than 10 µM. The 50% inhibitory concentration (IC50) (FFLUC_HILL_SLOPE 22.4, FFLUC_R_SQUARED 0.497, HEPG2TOX_HILL_SLOPE 9.12, HEPG2TOX_R_SQUARED 0.733, read-out: LUCIFERASE INFECTION ASSAY - IC50) is greater than 10 µM.
As to `Cc1noc2nc(C3CC3)cc(C(=O)Oc3ccc(N4CCCC4=O)cc3)c12`, the IC90 is greater than 10 µM. Besides, under setting [1], the IC50 was greater than 10 µM.
